In the assay the target is T1, Human M4 (Homo sapiens, UniProt P08173).
T1 construct: expressed in transfected cells; host or cells: CHO-K1 (ATCC), co-transfected with chimeric G protein Gqi5
T1 sequence (P08173 1-479): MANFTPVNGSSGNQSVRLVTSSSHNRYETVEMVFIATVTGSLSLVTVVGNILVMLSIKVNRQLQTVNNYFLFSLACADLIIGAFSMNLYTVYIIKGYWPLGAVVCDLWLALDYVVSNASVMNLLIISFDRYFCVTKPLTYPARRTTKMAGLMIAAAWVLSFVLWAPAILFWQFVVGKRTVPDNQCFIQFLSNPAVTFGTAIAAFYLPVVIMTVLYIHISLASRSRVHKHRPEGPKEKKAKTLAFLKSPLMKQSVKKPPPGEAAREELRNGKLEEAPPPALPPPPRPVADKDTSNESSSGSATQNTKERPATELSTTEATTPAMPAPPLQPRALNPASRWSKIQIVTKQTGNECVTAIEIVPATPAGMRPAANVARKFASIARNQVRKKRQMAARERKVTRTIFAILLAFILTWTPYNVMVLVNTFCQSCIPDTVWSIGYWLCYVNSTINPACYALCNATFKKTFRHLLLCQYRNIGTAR
Kind of assay: mAChR M4 cell-based functional assay (calcium flux, decrease of EC80 acetylcholine response) in M4/Gqi5/CHO-K1 cells. The conditions noted are these: CHO-K1 cells with human M4 and Gqi5; for remaining activity at 30 µM: % ACh maximum at 30 μM, read-out: Human M4 Emin; for IC50: antagonist mode: concentration-dependent decrease of response to EC80 acetylcholine. Here is the method: Human or rat M4 cDNA, along with the chimeric G protein Gqi5, were transfected into Chinese hamster ovary (CHO-K1) cells purchased from the American Type Culture Collection using Lipofectamine2000. M4/Gqi5/CHO cells were grown in Ham's F-12 medium containing 10% heat-inactivated fetal bovine serum (FBS), 20 mM HEPES, 500 μg/mL G418 sulfate, and 200 μg/mL Hygromycin B.
For high throughput measurement of agonist-evoked increases in intracellular calcium, CHO-K1 cells stably expressing muscarinic receptors were plated in growth medium lacking G418 and hygromycin at 15,000 cells/20 μL/well in Greiner 384-well black-walled, tissue culture (TC)-treated, clear-bottom plates (VWR). Cells were incubated overnight at 37° C. and 5% CO2. The next day, cells were washed using an ELX 405 (BioTek) with assay buffer; the final volume was then aspirated to 20 μL. Next, 20 μL of a 2.3 μM stock of Fluo-4/acetoxymethyl ester (Invitrogen, Carlsbad, CA), prepared as a 2.3 mM stock in DMSO and mixed in a 1:1 ratio with 10% (w/v) Pluronic F-127 and diluted in assay buffer, was added to the wells and the cell plates were incubated for 50 min at 37° C. and 5% CO2. Dye was removed by washing with the ELX 405 and the final volume was aspirated to 20 μL. Compound master plates were formatted in a 10 point concentration-response curve (CRC) format (1:3 dilutions) in 100% DMSO with a starting concentration of 10 or 1 mM using a BRAVO liquid handler (Agilent). Test compound CRCs were then transferred to daughter plates (240 nL) using the Echo acoustic plate reformatter (Labcyte, Sunnyvale, CA) and then diluted into assay buffer (40 μL) to a 2× stock using a Thermo Fisher Combi (Thermo Fisher Scientific, Waltham, MA).
Calcium flux was measured using the Functional Drug Screening System (FDSS) 6000 or 7000 (Hamamatsu Corporation, Tokyo, Japan) as an increase in the fluorescent static ratio. Compounds were applied to cells (20 μL, 2×) using the automated system of the FDSS at 2 seconds into the protocol and the data were collected at 1 Hz. At 143 s, 10 μL of an EC20 concentration of the muscarinic receptor agonist acetylcholine was added (5×), followed by the addition of 12 μL of an EC80 concentration of acetylcholine at the 268 s time point (5×). Agonist activity was analyzed as a concentration-dependent increase in calcium mobilization upon compound addition. Positive allosteric modulator activity was analyzed as a concentration-dependent increase in the EC20 acetylcholine response. Antagonist activity was analyzed as a concentration-dependent decrease in the EC80 acetylcholine response; for the purposes of the tables herein, an IC50 (inhibitory concentration 50) was calculated as a concentration-dependent decrease of the response elicited by an EC80 concentration of acetylcholine. Concentration-response curves were generated using a four-parameter logistical equation in XLFit curve fitting software (IDBS, Bridgewater, NJ) for Excel (Microsoft, Redmond, WA) or Prism (GraphPad Software, Inc., San Diego, CA) or the Dotmatics software platform (Dotmatics, Bishop's Stortford, UK).
Compounds were synthesized as described above. Activity (IC50 and Emin) was determined in the mAChR M4 cell-based functional assay as described above and the data are shown in Table 1.
For orientation: Calcium assays in cells follow changes in intracellular calcium, usually with a dye or a luminescent sensor.

On to `Fc1cc(F)c(F)c(-c2ccc(NCc3csc4c3CCN(CC3CCOCC3)C4)nn2)c1` [A1, N-((6-((tetrahydro-2H-pyran-4-yl)methyl)-4,5,6,7-tetrahydrothieno[2,3-c]pyridin-3-yl)methyl)-6-(2,3,5-trifluorophenyl)pyridazin-3-amine], for which the remaining activity at 30 µM was determined as 3% and the IC50 was found to be 595 nM.
`Fc1ccc(Cl)c(-c2ccc(NCc3csc4c3CCN(CC3CCOCC3)C4)nn2)c1` [A2, 6-(2-chloro-5-fluorophenyl)-N-((6-((tetrahydro-2H-pyran-4-yl)methyl)-4,5,6,7-tetrahydrothieno[2,3-c]pyridin-3-yl)methyl)pyridazin-3-amine]: the remaining activity at 30 µM came to 3% and the IC50 amounted to 85.2 nM.
Consider `Cn1cc2cc(-c3ccc(NCc4csc5c4CCN(CC4CCOCC4)C5)nn3)ccc2n1` [A3, 6-(2-methyl-2H-indazol-5-yl)-N-((6-((tetrahydro-2H-pyran-4-yl)methyl)-4,5,6,7-tetrahydrothieno[2,3-c]pyridin-3-yl)methyl)pyridazin-3-amine], for which the remaining activity at 30 µM turned out to be 9% and the IC50 was 529 nM.
In the case of `Fc1ccc(F)c(-c2ccc(NCc3csc4c3CCN(CC3CCOCC3)C4)nn2)c1` [A4, 6-(2,5-difluorophenyl)-N-((6-((tetrahydro-2H-pyran-4-yl)methyl)-4,5,6,7-tetrahydrothieno[2,3-c]pyridin-3-yl)methyl)pyridazin-3-amine], the remaining activity at 30 µM turned out to be 4% and the IC50 is 420 nM.
Turning to `Cc1ccc(F)cc1-c1ccc(NCc2csc3c2CCN(CC2CCOCC2)C3)nn1` [A5, 6-(5-fluoro-2-methylphenyl)-N-((6-((tetrahydro-2H-pyran-4-yl)methyl)-4,5,6,7-tetrahydrothieno[2,3-c]pyridin-3-yl)methyl)pyridazin-3-amine], the remaining activity at 30 µM was 5% and the IC50 turned out to be 77.3 nM.
As to `FC1(F)CCN(c2ccc(NCc3csc4c3CCN(CC3CCOCC3)C4)nn2)CC1` [A6, 6-(4,4-difluoropiperidin-1-yl)-N-((6-((tetrahydro-2H-pyran-4-yl)methyl)-4,5,6,7-tetrahydrothieno[2,3-c]pyridin-3-yl)methyl)pyridazin-3-amine], the remaining activity at 30 µM came to 7% and the IC50 is 668 nM.
As for `c1ccc(-c2ccc(NCc3csc4c3CCN(CC3CCOCC3)C4)nn2)cc1` [A7, 6-phenyl-N-((6-((tetrahydro-2H-pyran-4-yl)methyl)-4,5,6,7-tetrahydrothieno[2,3-c]pyridin-3-yl)methyl)pyridazin-3-amine], the remaining activity at 30 µM worked out at 6% and the IC50 was 477 nM.
On to `O=S1(=O)CCCCN1c1ccc(NCc2csc3c2CCN(CC2CCOCC2)C3)nn1` [A8, 2-(6-(((6-((tetrahydro-2H-pyran-4-yl)methyl)-4,5,6,7-tetrahydrothieno[2,3-c]pyridin-3-yl)methyl)amino)pyridazin-3-yl)-1,2-thiazinane 1,1-dioxide], for which the remaining activity at 30 µM worked out at 11% and the IC50 came out at 1400 nM.
`Fc1ccc(Cl)c(-c2ccc(NCc3csc4c3CCN(CC3CCCCC3)C4)nn2)c1` [A9, 6-(2-chloro-5-fluorophenyl)-N-((6-(cyclohexylmethyl)-4,5,6,7-tetrahydrothieno[2,3-c]pyridin-3-yl)methyl)pyridazin-3-amine]: the remaining activity at 30 µM was found to be 5% and the IC50 is 99.7 nM.
Turning to `CC(C)(C)CCN1CCc2c(CNc3ccc(-c4cc(F)ccc4Cl)nn3)csc2C1` [A10, 6-(2-chloro-5-fluorophenyl)-N-((6-(3,3-dimethylbutyl)-4,5,6,7-tetrahydrothieno[2,3-c]pyridin-3-y)methyl)pyridazin-3-amine], the remaining activity at 30 µM turned out to be 4% and the IC50 worked out at 84.7 nM.
Take `Fc1ccc(Cl)c(-c2ccc(NCc3csc4c3CCN(Cc3ccccn3)C4)nn2)c1` [A11, 6-(2-chloro-5-fluorophenyl)-N-((6-(pyridin-2-ylmethyl)-4,5,6,7-tetrahydrothieno[2,3-c]pyridin-3-yl)methyl)pyridazin-3-amine]: the remaining activity at 30 µM amounted to 4% and the IC50 worked out at 183 nM.
For `Cc1ccc(CN2CCc3c(CNc4ccc(-c5cc(F)ccc5Cl)nn4)csc3C2)nc1` [A12, 6-(2-chloro-5-fluorophenyl)-N-((6-((5-methylpyridin-2-yl)methyl)-4,5,6,7-tetrahydrothieno[2,3-c]pyridin-3-yl)methyl)pyridazin-3-amine], the remaining activity at 30 µM amounted to 10% and the IC50 was 1480 nM.
`OC1(CN2CCc3c(CNc4ccc(-c5cc(F)ccc5Cl)nn4)csc3C2)CCCCC1` [A13, 1-((3-(((6-(2-chloro-5-fluorophenyl)pyridazin-3-yl)amino)methyl)-4,7-dihydrothieno[2,3-c]pyridin-6(5H)-yl)methyl)cyclohexan-1-ol]: the remaining activity at 30 µM was found to be 4% and the IC50 came out at 276 nM.
In the same order, the values of `CN(Cc1csc2c1CCN(CC1CCOCC1)C2)c1ccc(-c2cc(F)ccc2Cl)nn1` [A14, 6-(2-chloro-5-fluorophenyl)-N-methyl-N-((6-((tetrahydro-2H-pyran-4-yl)methyl)-4,5,6,7-tetrahydrothieno[2,3-c]pyridin-3-yl)methyl)pyridazin-3-amine] are 7% and 1680 nM.
`[2H]C([2H])([2H])N(Cc1csc2c1CCN(CC1CCOCC1)C2)c1ccc(-c2cc(F)ccc2Cl)nn1` [A15, 6-(2-chloro-5-fluorophenyl)-N-(methyl-d3)-N-((6-((tetrahydro-2H-pyran-4-yl)methyl)-4,5,6,7-tetrahydrothieno[2,3-c]pyridin-3-yl)methyl)pyridazin-3-amine]: the remaining activity at 30 µM came out at 8% and the IC50 stood at 957 nM.
Turning to `[2H]C([2H])(C1CCOCC1)N1CCc2c(CNc3ccc(-c4cc(F)ccc4Cl)nn3)csc2C1` [A16, 6-(2-chloro-5-fluorophenyl)-N-((6-((tetrahydro-2H-pyran-4-yl)methyl-d2)-4,5,6,7-tetrahydrothieno[2,3-c]pyridin-3-yl)methyl)pyridazin-3-amine], the remaining activity at 30 µM came out at 5% and the IC50 was 46.5 nM.
Regarding `Fc1ccc(Cl)c(-c2ccc(NCc3cccc4c3CCN(CC3CCOCC3)C4)nn2)c1` [B1, 6-(2-chloro-5-fluorophenyl)-N-((2-((tetrahydro-2H-pyran-4-yl)methyl)-1,2,3,4-tetrahydroisoquinolin-5-yl)methyl)pyridazin-3-amine], the remaining activity at 30 µM amounted to 6% and the IC50 was 356 nM.
The corresponding values for `CC(C)(C)CCN1CCc2c(CNc3ccc(-c4cc(F)ccc4Cl)nn3)cccc2C1` [B2, 6-(2-chloro-5-fluorophenyl)-N-((2-(3,3-dimethylbutyl)-1,2,3,4-tetrahydroisoquinolin-5-yl)methyl)pyridazin-3-amine] are 6% and 98.9 nM.
Take `Fc1ccc(Cl)c(-c2ccc(NCc3cccc4c3CCN(CC3CCCCC3)C4)nn2)c1` [B3, 6-(2-chloro-5-fluorophenyl)-N-((2-(cyclohexylmethyl)-1,2,3,4-tetrahydroisoquinolin-5-y1)methyl)pyridazin-3-amine]: the remaining activity at 30 µM is 6% and the IC50 was determined as 251 nM.

A word on the IC50: it is the concentration at which inhibition is half-maximal.

Source of the values: US12516067B2, “Antagonists of the muscarinic acetylcholine receptor M4” (Vanderbilt University, priority 2020, dated 2026).
